The results in this text go back to patent US8754049B2, “Organic compound for the regulation of vectorial ion channels” (APEPTICO Forschung und Entwicklung GmbH, priority 2010, dated 2014).

Non-standard residues stand in square brackets, D forms with d. Residues, ends and D or L forms follow the SMILES beside them. Ahp = NCCCCCCC(=O)O

For data set [1], the target named is T1, epithelial sodium channels (Homo sapiens, UniProt P37088+P51168+P51170).
T1 construct: endogenous in cells; host or cells: A549 human lung epithelial cells (ATTC No. CCL-185)
Briefly: Patch-clamp measurement, whole cell configuration, amiloride-sensitive sodium current in A549 cells. Type of data set: cell-based. Particulars: for Activity in comparison to a peptide SEQ ID NO: 10 CGQRETPEGAEKPWYC ("TIP-Peptid", Lucas et al. Science 1994 also WO00/09149): whole cell patch-clamp, A549 cells, amiloride-sensitive sodium current, relative to TIP peptide SEQ ID NO: 10. An excerpt:
The detection of a vectorial regulation of ion channels by a compound may be effected according to a method common in laboratories, for example, according to Clunes M. T. et al., J. Physiolo. (2004) 557.3: 809-819), via patch-clamp experiments. For patch-clamp examinations of ion channels, a glass cannula is stretched thin and filled with a neutral buffer solution. The glass cannula (patch-clamp pipette) is carefully pressed onto an intact epithelial cell. A piece of membrane is located below the pipette. An electrical resistance is thereby produced between the interior of the pipette and the external solution. An electrode attached to a sensitive amplifier dips into the pipette solution.
A regulation of the vectorial epithelial ion channels is detected via a change in the current intensity with a constant voltage.
(§1) The electrophysiological experiments were performed on human A549 cells (ATTC No. CCL-185). A549 cells are human lung epithelial cells which are involved in the diffusion of water and electrolytes in the lungs. The cells were suspended in RPMI-1640 medium (Sigma-Aldrich, product number R6504) with 1% penicillin/streptomycin and 10% fetal calf serum, transferred into plastic cell culture vessels and cultivated in an incubator with 95% air and 5% CO2 at 37° C. The medium was changed 2 to 3 times per week. The cells double within approx. 22 hours, and a cell concentration of more than 7×10^4 cells per cm^2 was not exceeded.
For the patch-clamp experiments, the cells were transferred onto small glass plates.
Macroscopic currents were discharged from A549 cells in the “whole cell” configuration of the “patch-clamp” technique (Hamill et al, Pflugers Arch. 1981, 391(2):85-100, 1981). For the current dissipations in the “whole cell” configuration, the following bath and electrode solutions were used:
Bath solution: 135 mM sodium methanesulfonate, 10 mM NaCl, 2.7 mM KCl, 1.8 mM CaCl2, 2 mM MgCl2, 5.5 mM glucose, and 10 mM HEPES, pH 7.4.
Electrode solution: 120 mM potassium methanesulfonate, 15 mM KCl, 6 mM NaCl, 1 mM Mg2ATP, 2 mM Na3ATP, 10 mM HEPES, and 0.5 mM EGTA (pH 7.2).
Cover slips with the cells cultivated thereon were transferred into a test bath with a capacity of 1 ml, fixed on the microscope table (Axiovert 100, 400-fold magnification), and the cells were superfused with the above-described bath solution. Thereupon, the current was discharged from a suitable cell (which adheres to the cover slip). For this purpose, a microelectrode filled with an electrolyte solution (glass capillary with a defined, heat-polished tip opening of about 1-3 μm, corresponding to a resistance of the electrode tip of […]) was placed on the cell and the membrane was sucked in so that a “Gigaohm seal” was formed between the membrane and the electrode in order to minimize the leakage current. In the “whole cell” configuration, the membrane was penetrated beneath the electrode tip so that the current flowing through all ion channels of the cell could be measured. Upon obtaining a Gigaohm seal, a defined membrane retaining potential was applied via a pre-amplifier (CV-4 Headstage, Axon Instruments) and an amplifier (Axopatch 1 D, Axon Instr.) and the current thereby flowing through the ion channels was measured.
The pulse protocol consisted of a hyperpolarization of the cell membrane to −100 mV for 5 s and a subsequent gradual depolarization to +100 mV in 20 mV steps.
This protocol was performed before (control) and after the addition of ring-shaped organic molecules. The current dissipations thus obtained were stored and analyzed by means of the program PCLAMP 6.0. For this purpose, the current dissipations obtained in the presence of amiloride were subtracted from the currents recorded earlier so that the amiloride-sensitive sodium current through the epithelial sodium channels could be determined.

In the next data set the test system is human A549 cells. The data set is described as follows: Microscopic observation of A549 cells after addition of compounds. The data set is classed as cell-based. The conditions noted are these: microscopic observation after addition of compound. On the procedure:
as §1
The cells were microscopically observed.

T1 sequence (P51170 whole entry): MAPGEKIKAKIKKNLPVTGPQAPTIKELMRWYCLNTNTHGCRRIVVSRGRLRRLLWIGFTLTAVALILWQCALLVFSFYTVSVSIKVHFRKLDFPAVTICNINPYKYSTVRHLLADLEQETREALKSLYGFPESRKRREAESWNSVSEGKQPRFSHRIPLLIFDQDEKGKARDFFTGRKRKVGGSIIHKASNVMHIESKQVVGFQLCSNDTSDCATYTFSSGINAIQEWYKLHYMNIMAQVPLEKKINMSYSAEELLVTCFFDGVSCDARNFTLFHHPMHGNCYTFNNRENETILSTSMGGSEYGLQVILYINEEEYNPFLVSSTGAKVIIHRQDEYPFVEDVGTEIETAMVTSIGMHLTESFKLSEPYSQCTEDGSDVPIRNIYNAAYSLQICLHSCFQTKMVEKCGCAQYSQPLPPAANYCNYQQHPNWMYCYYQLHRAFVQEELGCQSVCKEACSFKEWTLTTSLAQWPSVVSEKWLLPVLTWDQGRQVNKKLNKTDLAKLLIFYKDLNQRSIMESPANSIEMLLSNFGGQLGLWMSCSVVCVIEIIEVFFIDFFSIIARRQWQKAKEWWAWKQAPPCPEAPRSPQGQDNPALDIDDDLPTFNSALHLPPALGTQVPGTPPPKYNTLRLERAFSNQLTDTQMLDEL
T1 sequence (P37088 whole entry): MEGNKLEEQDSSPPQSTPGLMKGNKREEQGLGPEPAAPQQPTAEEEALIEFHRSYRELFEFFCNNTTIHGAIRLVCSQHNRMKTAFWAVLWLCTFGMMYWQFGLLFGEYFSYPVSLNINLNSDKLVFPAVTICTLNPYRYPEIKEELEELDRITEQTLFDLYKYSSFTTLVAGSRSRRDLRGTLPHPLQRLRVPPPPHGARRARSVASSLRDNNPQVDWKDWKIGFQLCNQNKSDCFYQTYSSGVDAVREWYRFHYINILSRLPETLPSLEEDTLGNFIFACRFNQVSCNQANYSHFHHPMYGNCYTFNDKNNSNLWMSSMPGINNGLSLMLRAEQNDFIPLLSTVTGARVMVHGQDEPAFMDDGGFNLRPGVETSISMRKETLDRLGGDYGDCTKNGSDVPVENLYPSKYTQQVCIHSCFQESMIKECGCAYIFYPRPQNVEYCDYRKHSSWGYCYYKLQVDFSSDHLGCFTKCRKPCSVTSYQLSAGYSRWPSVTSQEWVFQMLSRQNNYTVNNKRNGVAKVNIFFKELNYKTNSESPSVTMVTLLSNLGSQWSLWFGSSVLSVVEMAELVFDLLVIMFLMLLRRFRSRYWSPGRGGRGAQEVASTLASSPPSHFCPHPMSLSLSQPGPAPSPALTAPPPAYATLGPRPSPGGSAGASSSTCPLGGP
T1 sequence (P51168 whole entry): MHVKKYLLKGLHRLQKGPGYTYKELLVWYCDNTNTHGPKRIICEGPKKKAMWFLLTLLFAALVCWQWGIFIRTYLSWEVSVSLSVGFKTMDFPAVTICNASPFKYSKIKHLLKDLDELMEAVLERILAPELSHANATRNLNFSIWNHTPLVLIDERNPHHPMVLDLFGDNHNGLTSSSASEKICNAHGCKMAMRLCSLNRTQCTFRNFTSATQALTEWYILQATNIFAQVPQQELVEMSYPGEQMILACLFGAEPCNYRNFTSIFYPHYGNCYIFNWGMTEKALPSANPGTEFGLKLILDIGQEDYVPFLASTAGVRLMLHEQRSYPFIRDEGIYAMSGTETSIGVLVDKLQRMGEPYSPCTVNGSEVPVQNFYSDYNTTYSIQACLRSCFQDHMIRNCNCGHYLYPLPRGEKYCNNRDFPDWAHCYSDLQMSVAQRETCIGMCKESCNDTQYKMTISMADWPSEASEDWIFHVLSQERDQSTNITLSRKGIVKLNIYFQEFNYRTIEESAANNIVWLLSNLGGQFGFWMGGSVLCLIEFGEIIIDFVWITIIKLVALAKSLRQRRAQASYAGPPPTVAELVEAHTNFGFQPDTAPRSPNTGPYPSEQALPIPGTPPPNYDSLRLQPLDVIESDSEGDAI

For the compound `C[C@@H]1NC(=O)CNC(=O)[C@H](CCC(=O)O)NC(=O)[C@@H]2CCCN2C(=O)[C@H]([C@@H](C)O)NC(=O)[C@H](CCC(=O)O)NC(=O)[C@H](CCCNC(=N)N)NC(=O)[C@H](CCC(N)=O)NC(=O)CNC(=O)[C@@H](N)CCCNC(=O)CNC(=O)[C@H](Cc2ccc(O)cc2)NC(=O)[C@H](Cc2c[nH]c3ccccc23)NC(=O)[C@@H]2CCCN2C(=O)[C@H](CCCCN)NC(=O)[C@H](C)NC(=O)[C@H](CCC(=O)O)NC1=O` [SEQ ID NO: 2, [ornithine-GQRETPEGAEAKPWYG] (cyclo Orn-delta1-G17)], the “Activity in comparison to a peptide SEQ ID NO: 10 CGQRETPEGAEKPWYC ("TIP-Peptid", Lucas et al. Science 1994 also WO00/09149)” value in data set [1] was found to be 115%. In the data set on human A549 cells, the “changes in morphology or cell growth” value is on record as “did not produce any changes in morphology or cell growth” and the death of cells result is “did not result in the death of cells”.
As to `C[C@@H]1NC(=O)CNC(=O)[C@H](CCC(=O)O)NC(=O)[C@@H]2CCCN2C(=O)[C@H]([C@@H](C)O)NC(=O)[C@H](CCC(=O)O)NC(=O)[C@H](CCCNC(=N)N)NC(=O)[C@H](CCC(N)=O)NC(=O)CNC(=O)CCCCCCNC(=O)[C@H](Cc2ccc(O)cc2)NC(=O)[C@H](Cc2c[nH]c3ccccc23)NC(=O)[C@@H]2CCCN2C(=O)[C@H](CCCCN)NC(=O)[C@H](C)NC(=O)[C@H](CCC(=O)O)NC1=O` [SEQ ID NO: 7, [7-amino-heptanoic acid-GQRETPEGAEAKPWY] (cyclo 1-16)] (cyclo(AEAKPWY[Ahp]GQRETPEG)), in the data set on human A549 cells, the “changes in morphology or cell growth” value is reported as “did not produce any changes in morphology or cell growth” and the death of cells result is “did not result in the death of cells”.
With “LSPGQRETPEGAEAKPWYE (peptide published in WO 2009/073909) [SEQ ID NO: 12, known peptide from WO2009/073909 (PCT AT2008 448), reference compound]”, in data set [1], the “Activity in comparison to a peptide SEQ ID NO: 10 CGQRETPEGAEKPWYC ("TIP-Peptid", Lucas et al. Science 1994 also WO00/09149)” value amounted to 60%.
For the compound “[6-amino-hexanoic acid-GQRETPEGAEAKPWYG] (cyclo 1-17) [SEQ ID NO: 8]”, the “activation of the vectorial ionic current compared with known peptides SEQ ID NO: 10, 11 and 12” value in data set [1] (patch-clamp, comparison in words) is “significantly higher activations of the vectorial ionic current”. Also, the “Activity in comparison to a peptide SEQ ID NO: 10 CGQRETPEGAEKPWYC ("TIP-Peptid", Lucas et al. Science 1994 also WO00/09149)” value in data set [1] worked out at 150%. Further, in the data set on human A549 cells, the “changes in morphology or cell growth” value is given as “did not produce any changes in morphology or cell growth” and the death of cells result was “did not result in the death of cells”.
Consider `C[C@@H]1NC(=O)CNC(=O)[C@H](CCC(=O)O)NC(=O)[C@@H]2CCCN2C(=O)[C@H]([C@@H](C)O)NC(=O)[C@H](CCC(=O)O)NC(=O)[C@H](CCCNC(=N)N)NC(=O)[C@H](CCC(N)=O)NC(=O)CNC(=O)[C@@H](N)CCCCNC(=O)CNC(=O)[C@H](Cc2ccc(O)cc2)NC(=O)[C@H](Cc2c[nH]c3ccccc23)NC(=O)[C@@H]2CCCN2C(=O)[C@H](CCCCN)NC(=O)[C@H](C)NC(=O)[C@H](CCC(=O)O)NC1=O` [SEQ ID NO: 1, [KGQRETPEGAEAKPWYG] (cyclo Kepsilon1-G17)], for which the “Activity in comparison to a peptide SEQ ID NO: 10 CGQRETPEGAEKPWYC ("TIP-Peptid", Lucas et al. Science 1994 also WO00/09149)” value in data set [1] is listed as 150%. Also, in the data set with human A549 cells, the “changes in morphology or cell growth” value is reported as “did not produce any changes in morphology or cell growth” and the death of cells result is listed as “did not result in the death of cells”.
As for “CGTKPIELGPDEPKAVC (peptide published in EP 2 009 023) [SEQ ID NO: 11, known peptide for controlling fluid content in the alveoli, from EP 2 009 023, reference compound]”, in data set [1], the “Activity in comparison to a peptide SEQ ID NO: 10 CGQRETPEGAEKPWYC ("TIP-Peptid", Lucas et al. Science 1994 also WO00/09149)” value turned out to be 80%.
For the compound `C[C@@H]1NC(=O)CNC(=O)[C@H](CCC(=O)O)NC(=O)[C@@H]2CCCN2C(=O)[C@H]([C@@H](C)O)NC(=O)[C@H](CCC(=O)O)NC(=O)[C@H](CCCNC(=N)N)NC(=O)[C@H](CCC(N)=O)NC(=O)CNC(=O)CCCNC(=O)C[C@@H](C(=O)O)NC(=O)[C@H](Cc2ccc(O)cc2)NC(=O)[C@H](Cc2c[nH]c3ccccc23)NC(=O)[C@@H]2CCCN2C(=O)[C@H](CCCCN)NC(=O)[C@H](C)NC(=O)[C@H](CCC(=O)O)NC1=O` [SEQ ID NO: 5, [gamma-aminobutyric acid-GQRETPEGAEAKPWYD-OH] (cyclo 1-Dγ17)], the “Activity in comparison to a peptide SEQ ID NO: 10 CGQRETPEGAEKPWYC ("TIP-Peptid", Lucas et al. Science 1994 also WO00/09149)” value in data set [1] amounted to 160%. In addition, in the data set on human A549 cells, the “changes in morphology or cell growth” value is “did not produce any changes in morphology or cell growth” and the death of cells entry is “did not result in the death of cells”.
Take `C[C@@H]1NC(=O)CNC(=O)[C@H](CCC(=O)O)NC(=O)[C@@H]2CCCN2C(=O)[C@H]([C@@H](C)O)NC(=O)[C@H](CCC(=O)O)NC(=O)[C@H](CCCNC(=N)N)NC(=O)[C@H](CCC(N)=O)NC(=O)CNC(=O)CCCNC(=O)CNC(=O)[C@H](Cc2ccc(O)cc2)NC(=O)[C@H](Cc2c[nH]c3ccccc23)NC(=O)[C@@H]2CCCN2C(=O)[C@H](CCCCN)NC(=O)[C@H](C)NC(=O)[C@H](CCC(=O)O)NC1=O` [SEQ ID NO: 4, [gamma-aminobutyric acid-GQRETPEGAEAKPWYG] (cyclo 1-17)]: in the data set on human A549 cells, the “changes in morphology or cell growth” value is recorded as “did not produce any changes in morphology or cell growth” and the death of cells result is listed as “did not result in the death of cells”.
With `C[C@@H]1NC(=O)CNC(=O)[C@H](CCC(=O)O)NC(=O)[C@@H]2CCCN2C(=O)[C@H]([C@@H](C)O)NC(=O)[C@H](CCC(=O)O)NC(=O)[C@H](CCCNC(=N)N)NC(=O)[C@H](CCC(N)=O)NC(=O)CNC(=O)CCNC(=O)CC[C@@H](C(=O)O)NC(=O)[C@H](Cc2ccc(O)cc2)NC(=O)[C@H](Cc2c[nH]c3ccccc23)NC(=O)[C@@H]2CCCN2C(=O)[C@H](CCCCN)NC(=O)[C@H](C)NC(=O)[C@H](CCC(=O)O)NC1=O` [SEQ ID NO: 6, [3-amino-propanoic acid-GQRETPEGAEAKPWYE-OH] (cyclo 1-Eδ17)], the “Activity in comparison to a peptide SEQ ID NO: 10 CGQRETPEGAEKPWYC ("TIP-Peptid", Lucas et al. Science 1994 also WO00/09149)” value in data set [1] is recorded as 150%. In addition, in the data set on human A549 cells, the “changes in morphology or cell growth” value is recorded as “did not produce any changes in morphology or cell growth” and the death of cells entry is “did not result in the death of cells”.
As to `C[C@@H]1NC(=O)CNC(=O)[C@H](CCC(=O)O)NC(=O)[C@@H]2CCCN2C(=O)[C@H]([C@@H](C)O)NC(=O)[C@H](CCC(=O)O)NC(=O)[C@H](CCCNC(=N)N)NC(=O)[C@H](CCC(N)=O)NC(=O)CNC(=O)CCCCNC(=O)CNC(=O)[C@H](Cc2ccc(O)cc2)NC(=O)[C@H](Cc2c[nH]c3ccccc23)NC(=O)[C@@H]2CCCN2C(=O)[C@H](CCCCN)NC(=O)[C@H](C)NC(=O)[C@H](CCC(=O)O)NC1=O` [SEQ ID NO: 3, [5-amino-pentanoic acid-GQRETPEGAEAKPWYG] (cyclo 1-17)], in the data set with human A549 cells, the “changes in morphology or cell growth” value is recorded as “did not produce any changes in morphology or cell growth” and the death of cells result is recorded as “did not result in the death of cells”.
